Results from PMC9928118, “Funneling modulatory peptide design with generative models: Discovery and characterization of disruptors of calcineurin protein-protein interactions” (PLOS Computational Biology, 2023).

System: GST-tagged Cn
Test: PEPperPRINT peptide microarray binding assay with GST-tagged Cn
Text: We then estimated in-silico the binding strength of the various peptides to Cn by template-based docking followed by flexible backbone refinement using Modeller and PepCrawler (Figs 4 and S4). In parallel, we performed a medium-throughput qualitative binding assay using a PEPperPRINT peptide microarray to evaluate the direct binding of Cn to selected peptides (Figs 4 and S5, S3 Data).
Fig 4 Medium-throughput filtering by structural modeling and microarray screening. (a) Depiction of the structural modeling protocol: after alignment to the known PxIxIT binding site, an efficient flexible backbone structure refinement algorithm is applied to estimate the docking energy. […] (c) Coefficients of the equivalent single-site model fitted by sparse linear regression, shown in weight logo representation. […] Colors indicate physical property (black = hydrophobic, red = negatively charged, etc.). (d) Per-gene distribution of docking scores across natural fragments (lower is better). […] (e) Overview of the microarray screening. Peptides are printed on the chip (two circles per peptide). After pouring of Cn and subsequent washing, fluorescent-tagged, a Cn-targeting antibody is overlaid and an image is taken. Fluorescent spots indicate strong Cn binders. (f) Scatter plot of the sequence likelihood (normalized by length, higher is better) against fluorescence level (higher is better, see Methods for details of the data analysis).
In parallel, selected peptides were tested for Cn binding on a chip microarray (PEPperPRINT). 786 peptides were printed on the chip and were incubated with GST-tagged Cn overnight at 4°C. Following extensive washing, binding was detected by applying a fluorescently labeled (Alexa-Fluor 647) GST antibody. […] The experiment was repeated five times, and Z-normalized fluorescence levels were determined following post-processing of the raw data (Methods, S5A, S5B and S5C Fig).
The peptide array was prepared as a custom array pepper chip (PEPperPRINT). For binding detection, 1mg/ml GST-tagged Cn was incubated overnight on the microarray at 4°C. Following extensive washing, fluorescently labeled (Alexa-Fluor 647) GST-antibody. […] The experiment was repeated five times. Each scan was analyzed as follows: a grid was overlaid using the border HA markers to determine regions of interest (ROI) for each peptide (two ROIs per peptide) and the logarithm of the average fluorescence intensity was computed for each ROI. […] To remove spatial artifacts, a position-dependent baseline fluorescence was fitted using a second-order polynomial, and subtracted to the fluorescence. Fluorescence levels were next averaged over the two ROI for each peptide and Z-normalized. […] The Z-scores were averaged over the five repetitions to yield one fluorescence score per peptide.

[1] = max over the spots listed under Location on chip
[2] = mean over the spots listed under Location on chip
[3] = GST-tagged Cn, max over the chip locations
[4] = GST-tagged Cn, mean over the chip locations
[5] = max over the chip locations listed for the peptide (two spots)
[6] = mean over the chip locations listed for the peptide (two spots)
[7] = GST-tagged Cn, max over the spots named in Location on chip
[8] = GST-tagged Cn, mean over the spots named in Location on chip
[9] = GST-tagged Cn, max over the chip spots listed under Location on chip
[10] = GST-tagged Cn, mean over the chip spots listed under Location on chip
[11] = GST-tagged Cn, max over the spots on the chip (two locations)
[12] = GST-tagged Cn, mean over the spots on the chip (two locations)

## AAGAGVGIVITVTEAE [SeqRBMlowT_180]
[1]
  Chip Fluorescence (max): 3.317
[2]
  Chip Fluorescence (mean): 1.923

## ADEAAPEIVVSKPEHN [SeqRBMlowT_7698]
[3]
  Chip Fluorescence (max): 0.05556
[4]
  Chip Fluorescence (mean): -1.148

## ADEAGPEIVITPTELP [SeqRBMlowT_3142]
[3]
  Chip Fluorescence (max): 0.161
[4]
  Chip Fluorescence (mean): -1.962

## ADEAGVQIVITVTELP [SeqRBMlowT_1446]
[5]
  Chip Fluorescence (max): 3.577
[6]
  Chip Fluorescence (mean): 1.112

## ADEAIPEITITPAELP [SeqRBMlowT_424]
[1]
  Chip Fluorescence (max): 2.999
[2]
  Chip Fluorescence (mean): 0.8947

## ADEAIPEITITSAELP [SeqRBMlowT_2514]
[5]
  Chip Fluorescence (max): 17.6628
[6]
  Chip Fluorescence (mean): 2.99

## ADEAIPEIVISKPEEP [SeqRBMlowT_2534]
[5]
  Chip Fluorescence (max): 18.5398
[6]
  Chip Fluorescence (mean): 3.2425

## ADEAIPEIVISPPELP [SeqRBMlowT_1959]
[1]
  Chip Fluorescence (max): 3.309
[2]
  Chip Fluorescence (mean): 0.2863

## ADEAIPKIVIHPPEEP [SeqRBMlowT_1972]
[1]
  Chip Fluorescence (max): 3.233
[2]
  Chip Fluorescence (mean): -0.1428

## ADEANPEITITPAELP [SeqRBMlowT_369]
[7]
  Chip Fluorescence (max): 1.463
[8]
  Chip Fluorescence (mean): 0.5736

## ADEANPEITITPPELP [SeqRBMlowT_372]
[5]
  Chip Fluorescence (max): 6.273
[6]
  Chip Fluorescence (mean): 1.325

## ADEANPEITVTPAELP [SeqRBMlowT_396]
[9]
  Chip Fluorescence (max): 0.3864
[10]
  Chip Fluorescence (mean): -0.7137

## ADEANPQITITPAELP [SeqRBMlowT_1252]
[3]
  Chip Fluorescence (max): -0.527
[4]
  Chip Fluorescence (mean): -1.133

## ADEANPRITITPAELP [SeqRBMlowT_3131]
[5]
  Chip Fluorescence (max): 16.2722
[6]
  Chip Fluorescence (mean): 1.499

## ADEAPPEITITPAELP [SeqRBMlowT_445]
[5]
  Chip Fluorescence (max): 5.264
[6]
  Chip Fluorescence (mean): 0.1816

## ADEAPPRITITPYELP [SeqRBMlowT_5415]
[5]
  Chip Fluorescence (max): 3.784
[6]
  Chip Fluorescence (mean): 1.112

## ADEAQPGIVVHVCELP [SeqRBMlowT_119]
[7]
  Chip Fluorescence (max): 1.734
[8]
  Chip Fluorescence (mean): -0.1242

## ADEASPRIVITPPELP [SeqRBMlowT_1222]
[5]
  Chip Fluorescence (max): 3.902
[6]
  Chip Fluorescence (mean): 0.5727

## ADEAVPEITITPAELP [SeqRBMlowT_1267]
[1]
  Chip Fluorescence (max): 2.637
[2]
  Chip Fluorescence (mean): 0.3175

## ADGAGVGIVITVTEAE [SeqRBMlowT_1411]
[11]
  Chip Fluorescence (max): 1.31
[12]
  Chip Fluorescence (mean): -0.2973

## ADQELSSFQPFYIEAS [Seqshuffled_9636]
[9]
  Chip Fluorescence (max): 0.9604
[10]
  Chip Fluorescence (mean): 0.1044

## AFLATPSIIIHPPEGP [SeqRBM_2675]
[9]
  Chip Fluorescence (max): 0.739
[10]
  Chip Fluorescence (mean): -0.5185

## AGCTVNNYSTNFAEND [Seqshuffled_9821]
[1]
  Chip Fluorescence (max): 2.618
[2]
  Chip Fluorescence (mean): 0.6288

## AHVSVPVIVVSPGETI [SeqRBM_3486]
[3]
  Chip Fluorescence (max): 0.2381
[4]
  Chip Fluorescence (mean): -0.4942

## AINASPEIVVGYDELP [SeqRBM_6435]
[7]
  Chip Fluorescence (max): 1.452
[8]
  Chip Fluorescence (mean): 1.232

## AKDDPPKIQVHPPEED [SeqRBMlowT_9786]
[11]
  Chip Fluorescence (max): 1.098
[12]
  Chip Fluorescence (mean): -0.565

## AKMAPPAINIDFAPPN [SeqRBMlowT_7690]
[7]
  Chip Fluorescence (max): 1.862
[8]
  Chip Fluorescence (mean): -0.1462

## APSKITEVVVHECEVL [SeqRBM_4402]
[7]
  Chip Fluorescence (max): 1.576
[8]
  Chip Fluorescence (mean): -0.4054

## APSSWPSIVVSPPELN [SeqRBM_1086]
[7]
  Chip Fluorescence (max): 1.655
[8]
  Chip Fluorescence (mean): -0.3843

## AQMAPPAINIDFAPTN [SeqRBMlowT_7215]
[9]
  Chip Fluorescence (max): 0.4327
[10]
  Chip Fluorescence (mean): -0.8945

## AQSSQPPISTKYDARG [Seqshuffled_9482]
[9]
  Chip Fluorescence (max): 0.6167
[10]
  Chip Fluorescence (mean): -0.6535

## ARPPNAAFVLDQETTY [Seqshuffled_9990]
[11]
  Chip Fluorescence (max): 1.0396
[12]
  Chip Fluorescence (mean): 0.6258

## ARSFCPHRQVLSCKPK [SeqRBM_8304]
[5]
  Chip Fluorescence (max): 4.921
[6]
  Chip Fluorescence (mean): 0.2408

## ASALSPRIEITPSHEL [SeqNFATC1_Alligator_mississippiensis]
[1]
  Chip Fluorescence (max): 3.085
[2]
  Chip Fluorescence (mean): 0.192

## ASDDIPTVVIHPPEED [SeqSLC4A7_Pan_troglodytes]
[1]
  Chip Fluorescence (max): 2.587
[2]
  Chip Fluorescence (mean): -0.184

## ASEAAPTINIDFAPNP [SeqRBMlowT_1832]
[5]
  Chip Fluorescence (max): 4.3558
[6]
  Chip Fluorescence (mean): -0.1882

## ASEANPEITITPAELP [SeqRBMlowT_410]
[11]
  Chip Fluorescence (max): 1.116
[12]
  Chip Fluorescence (mean): -0.403

## ASGLSPRIEITPSHEL [SeqNFATC2_Homo_sapiens]
[11]
  Chip Fluorescence (max): 0.9983
[12]
  Chip Fluorescence (mean): 0.1363

## ASMSPPCINIDYAPIS [SeqRBM_1607]
[3]
  Chip Fluorescence (max): -0.1231
[4]
  Chip Fluorescence (mean): -1.5167

## ASSSAPEIVVSKPEHN [SeqKCNN2_Pan_troglodytes]
[9]
  Chip Fluorescence (max): 0.501
[10]
  Chip Fluorescence (mean): -0.7597

## ASTSTFPQQQTAHKKQ [SeqBOI2_Podospora_anserina]
[3]
  Chip Fluorescence (max): -0.0111
[4]
  Chip Fluorescence (mean): -1.452

## ASVSNPEITVTSAETE [SeqRBM_9489]
[5]
  Chip Fluorescence (max): 15.1807
[6]
  Chip Fluorescence (mean): 1.275

## ATDNQPGIVVHICADM [SeqRCN1_Daphnia_magna]
[11]
  Chip Fluorescence (max): 1.1168
[12]
  Chip Fluorescence (mean): 0.4617

## ATDTTPSVVVHVCESD [SeqRCN1_Macaca_mulatta]
[11]
  Chip Fluorescence (max): 1.045
[12]
  Chip Fluorescence (mean): 0.2093

## ATPGTFPRGDGAHKKQ [SeqRBMlowT_5886]
[5]
  Chip Fluorescence (max): 4.111
[6]
  Chip Fluorescence (mean): 0.8256

## ATSEQPTFDLSSAMPT [SeqRBM_6206]
[3]
  Chip Fluorescence (max): -1.8391
[4]
  Chip Fluorescence (mean): -2.255

## ATSFVPQLASTLFSLW [SeqRBM_1383]
[9]
  Chip Fluorescence (max): 0.6271
[10]
  Chip Fluorescence (mean): -0.8819

## ATSGTFPQTDGSHKKQ [SeqRBMlowT_7701]
[3]
  Chip Fluorescence (max): -0.3986
[4]
  Chip Fluorescence (mean): -1.022

## ATSGTFPQTEGSHKKQ [SeqRBMlowT_5854]
[7]
  Chip Fluorescence (max): 1.785
[8]
  Chip Fluorescence (mean): -0.4136

## AYPGTYYGQDGSHKKQ [SeqRBM_820]
[1]
  Chip Fluorescence (max): 2.763
[2]
  Chip Fluorescence (mean): 0.3608

## CDHMGLDIVIFVTELC [SeqRBM_1060]
[5]
  Chip Fluorescence (max): 8.388
[6]
  Chip Fluorescence (mean): 2.901

## DAHACAVLGIGSFSLL [SeqRBM_9753]
[11]
  Chip Fluorescence (max): 1.031
[12]
  Chip Fluorescence (mean): -0.08931

## DRMAQDSMGWCRECLM [Seqrandom_9951]
[5]
  Chip Fluorescence (max): 3.639
[6]
  Chip Fluorescence (mean): 1.593

## DSHTVDPIPINPHSAV [SeqRBM_5538]
[9]
  Chip Fluorescence (max): 0.9715
[10]
  Chip Fluorescence (mean): -0.655

## DSLEGATIVITLTEGK [SeqRBM_8933]
[5]
  Chip Fluorescence (max): 3.74
[6]
  Chip Fluorescence (mean): 0.5914

## DSLKIPQVRMRIDSAT [SeqRBM_3711]
[3]
  Chip Fluorescence (max): -0.1629
[4]
  Chip Fluorescence (mean): -1.069

## DSLYQEVLGIGSFSLA [SeqCRZ1_Hypocrea_virens]
[1]
  Chip Fluorescence (max): 2.584
[2]
  Chip Fluorescence (mean): -0.1117

## DSLYQEVLGIRSFSLS [SeqRBM_8930]
[9]
  Chip Fluorescence (max): 0.6781
[10]
  Chip Fluorescence (mean): 0.06214

## DSSANPEITITPAELP [SeqRBMlowT_4460]
[1]
  Chip Fluorescence (max): 2.624
[2]
  Chip Fluorescence (mean): 0.4288

## DTLWIGSGTVTDSGNY [SeqRBM_1220]
[5]
  Chip Fluorescence (max): 3.766
[6]
  Chip Fluorescence (mean): 0.1629

## DTYGTASLARELPSPK [Seqshuffled_9914]
[7]
  Chip Fluorescence (max): 1.867
[8]
  Chip Fluorescence (mean): 0.7201

## DVSDSPDVDLKIPQAR [SeqRBM_5022]
[9]
  Chip Fluorescence (max): 0.6546
[10]
  Chip Fluorescence (mean): -0.1589

## EDGKVPSIEIDVREYA [SeqRBM_7430]
[1]
  Chip Fluorescence (max): 2.944
[2]
  Chip Fluorescence (mean): 0.8153

## EGKMDPELYISTVEAQ [SeqRBM_3392]
[5]
  Chip Fluorescence (max): 3.895
[6]
  Chip Fluorescence (mean): 0.1296

## EPEMSPSIFILKAHTT [SeqRBM_1051]
[3]
  Chip Fluorescence (max): -0.7132
[4]
  Chip Fluorescence (mean): -1.058

## ERWSIGFGDMFCNQFK [Seqrandom_9989]
[1]
  Chip Fluorescence (max): 2.7221
[2]
  Chip Fluorescence (mean): 0.53
